In US12576085B2, “Combination comprising an ATP analog and an adenosine receptor antagonist or a nucleobase/nucleoside analog for the treatment of cancer” (priority 2010, dated 2026):

Legend:
[1] = cited from earlier work
T84 cells = experiment: Short-circuit current (ISC, Cl- secretion) in T84 cells in Ussing chambers; assay type: cell-based, human; settings: for effect of antagonist on currents induced by imatinib and adenosine: 10 μM antagonist after 100 μM imatinib and 1 μM adenosine; for increase in ISC on basolateral addition of the compound alone: NBMPR 10 μM, imatinib 100 μM, no extracellular adenosine added; for increase in ISC on basolateral addition of the compound alone / currents on apical addition of the TKI: erlotinib 20 μM, gefitinib 100 μM
Experimental: T84 cells were routinely grown in DMEM/F12 (1:1) cell culture media with 10% FBS, 1 mM sodium pyruvate, 1× penicillin/streptomycin and 10 mM HEPES. For experiments described in this report, T84 cells were grown on 12 mm snapwell inserts for 6-8 days with media changes every 2-3 days. […] Compounds were added in small aliquots to the basolateral or apical chamber and the secretory response was measured as an increase in short-circuit current (ISC) due to Cl^− secretion and was monitored as a function of time.

[2] = patients treated with erlotinib; cited from earlier work
[3] = test system: adenine nucleobase transporters; settings: read-out: IC50 for inhibition of adenine transport; 1 μM [3H]adenine, hRPTCs, sodium buffer pH 7.4, 2 minute incubation
Experimental: Human renal proximal tubule cells (hRPTCs) were seeded in 12-well plates at densities of 10^5 cells/well and grown for 7 days with medium changes every 3-4 days. On the day of experiments, growth medium was aspirated and cells were washed twice with 1.5 ml of 20 mM Tris-HCl buffer (pH 7.4) containing 150 mM NaCl, 1.2 mM MgCl2 and 1 mM CaCl2 (hereafter referred to as sodium buffer). […] At the end of 2 minute incubations, cells were washed twice with sodium buffer and intracellular accumulation of [^3H]adenine was determined by solubilizing cells with 5% Triton-X-100 and subsequent determination of radioactivity in a scintillation counter. Data are presented as percent of values obtained in the absence of a competitor (controls). Resulting concentration-effect curves were analyzed by nonlinear regression analysis using Graph Pad Prism software version 4.0 (Graph Pad Software Inc., San Diego, CA) to obtain IC50 values for the compounds.

O=c1[nH]cc(F)c(=O)[nH]1 [5-FU, 5-fluorouracil]
half-life [1]: 20 min

Cn1c(=O)c2[nH]c(-c3ccccc3)nc2n(C)c1=O [8-PT, 8-phenyltheophylline]
effect of antagonist on ISC induced by adenosine then NBMPR (T84 cells; 10 μM 8-PT after 1 μM adenosine and 10 μM NBMPR, basolateral, FIG. 4): ISC returned to baseline levels
effect of antagonist on currents induced by erlotinib and adenosine (T84 cells; 10 μM 8-PT after 20 μM erlotinib and 1 μM adenosine, basolateral, FIG. 8): abolished
effect of antagonist on currents induced by gefitinib and adenosine (T84 cells; 10 μM 8-PT after 100 μM gefitinib and 1 μM adenosine, basolateral, FIG. 9): abolished
effect of antagonist on currents induced by apical erlotinib or gefitinib (T84 cells; 10 μM 8-PT apical, FIG. 12): abolished
induction of ISC by adenosine after pretreatment with antagonist (T84 cells; 10 μM 8-PT basolateral prior to 1 μM adenosine basolateral, FIG. 7 panel C): no induction of ISC
effect of antagonist on currents induced by imatinib and adenosine (T84 cells; basolateral, FIG. 10): abolished
effect of antagonist on ISC induced by NBMPR then adenosine (T84 cells; 8-PT after 10 μM NBMPR and 1 μM adenosine, basolateral, FIG. 6): reversed the increase in ISC to baseline activity

O=[N+]([O-])c1ccc(CSc2ncnc3c2ncn3[C@@H]2O[C@H](CO)[C@@H](O)[C@H]2O)cc1 [NBMPR, nitrobenzylmercaptopurine riboside]
ISC on addition of NBMPR after adenosine (T84 cells; 10 μM NBMPR after 1 μM adenosine, basolateral, FIG. 4): much higher ISC
induction of currents by NBMPR (retest) (T84 cells; 20 μM NBMPR basolateral, FIG. 7 panel B): Induction of currents
increase in ISC on basolateral addition of the compound alone (T84 cells; basolateral): steady increase in ISC with time

Nc1ncnc2c1ncn2[C@@H]1O[C@H](CO)[C@@H](O)[C@H]1O [adenosine]
ISC on addition of adenosine after NBMPR (T84 cells; 1 μM adenosine after 10 μM NBMPR, basolateral, FIG. 6): substantial increase in ISC
currents on addition of adenosine after erlotinib (T84 cells; 1 μM adenosine after 20 μM erlotinib, basolateral, FIG. 8): substantial induction of currents
currents on addition of adenosine after gefitinib (T84 cells; 1 μM adenosine after 100 μM gefitinib, basolateral, FIG. 9): substantial induction of currents
currents on addition of adenosine after imatinib (T84 cells; 1 μM adenosine after 100 μM imatinib, basolateral, FIG. 10): substantial induction of currents
currents on addition of adenosine to apical and both sides (T84 cells; 1 μM adenosine, apical or both sides versus basolateral, FIG. 11): much higher currents than on the basolateral side alone
ISC with increasing concentrations of adenosine (T84 cells; adenosine basolateral in 1 μM increments, FIG. 7 panel A): ISC increased

C#Cc1cccc(Nc2ncnc3cc(OCCOC)c(OCCOC)cc23)c1 [erlotinib]
currents on apical addition of the TKI (T84 cells; FIG. 12): slow increase in currents
increase in ISC on basolateral addition of the compound alone (T84 cells; basolateral): increase in ISC similar to that of NBMPR
patients who develop diarrhea [2]: 30%

COc1cc2ncnc(Nc3ccc(F)c(Cl)c3)c2cc1OCCCN1CCOCC1 [gefitinib]
currents on apical addition of the TKI (T84 cells; FIG. 12): slow increase in currents
increase in ISC on basolateral addition of the compound alone (T84 cells; basolateral): slow but steady increase in ISC similar to that of NBMPR

CCN(CC)CCNC(=O)c1c(C)[nH]c(/C=C2\C(=O)Nc3ccc(F)cc32)c1C [sunitinib]
IC50 [3]: 50 µM

Cn1c(=O)c2[nH]cnc2n(C)c1=O [theophylline]
effect of antagonist on currents induced by imatinib and adenosine (T84 cells; basolateral, FIG. 10): abolished
effect of antagonist on adenosine induced increase in ISC (T84 cells; 10 μM antagonist, adenosine alone, FIG. 5): blocked

COc1cc2c(Nc3ccc(Br)cc3F)ncnc2cc1OCC1CCN(C)CC1 [vandetanib]
IC50 [3]: ≥ 100 µM
